How the values were obtained:
[1] = RAL depletion kinetics by drug in rod outer segment preparation; type: biochemical, bovine; conditions: for Kapp, apparent equilibrium constant of RAL depletion by drug: rod outer segment prep containing 64 μM opsin at 37° C.; for kapp, apparent second order rate constant of RAL depletion by drug / ΔGapp, apparent free energy change of RAL depletion by drug: rod outer segment preparation containing 64 μM opsin at 37° C.; for ΔGapp, apparent free energy change of RAL depletion by drug: ΔGapp=−RT ln Kapp
Text: The parameters associated with the analysis of RAL depletion kinetics are as follows:
[drawing 47] kapp: apparent second order rate constant of RAL depletion by drug. Kapp: apparent equilibrium constant of RAL depletion by drug.
[formula] ΔGapp: apparent free energy change of RAL depletion by drug. ΔGapp=−RT ln Kapp (2) KT: equilibrium constant of tautomerism from imine (ring opened) to oxaminal (ring closed).
Determination of kapp, Kapp and ΔGapp in rod outer segments. Frozen bovine rod outer segment preparation (64 μM of opsin) was thawed and vortexed thoroughly. A 200 μL aliquot of this sample was transferred into a 0.5 mL Eppendorf tube. To it was added 10 μL of 20 mM drug stock solution in EtOH, and the mixture vortexed for 1 min. The tube was incubated at 37° C. in a Thermo Scientific microprocessor controlled 280 series water bath for 3 min before 5 μL freshly prepared 2.4 mM RAL solution in EtOH was added (the nominal starting concentrations of drug and RAL are 1.00 mM and 60 μM, respectively). After vortexing for 1 min, the tube was incubated at 37° C. and aliquots of the reaction mixture (25 μL each) were taken periodically and added onto 10 mg of solid NaBH4 in a 0.5 mL Eppendorf tube. To the latter was added 400 μL of 2:1 (v/v) EtOH/HOAc. The reduction mixture was vortexed for 1 min and centrifuged. The supernatant was separated, and analyzed by HPLC using a standard HPLC method: • Instrument: HPLC-PE-97 • Column: Waters Sunfire C18 3.5 μm/4.6×100 mm column • Solvent A: 0.05% HCOOH/95% HPLC grade water/5% HPLC grade MeCN • Solvent B: 0.05% HCOOH HPLC grade MeCN • Pump program: 0-3 min 5-100% B, 3-30 min 100% B, 31-32 min 100%-5% B, 32-35 min 5% B • Flow rate: 1 mL/min • Detector wavelengths: 329 and 250 nm • Reference wavelength: 400 nm • Injection volume: 50 μL.
The RAL depletion percentages were calculated by normalization of retinol (ROL) and RAL-drug peak integrals, which were then plotted against reaction time. Least squares fit of the RAL depletion plot according to pseudo-first order kinetics yielded observed first order rate constant kobsd, and kapp is calculated according to kobsd=kapp[drug]. Kapp was calculated from the equilibrium concentrations of free RAL, free drug and RAL-drug according to equation (1). ΔGapp was calculated according to equation (2).

[2] = Imine/oxaminal tautomerism of RAL-drug adducts by 1H NMR in CDCl3; type: physicochemical; conditions: in CDCl3 at 25° C.; for ΔGT, free energy change of tautomerism from imine to oxaminal (ring closed): ΔGT=−RT ln KT
Method: [formula] ΔGT: free energy change of tautomerism from imine to oxaminal. ΔGT=−RT ln KT (4) General Methods.
Preparation of the adducts RAL-1, RAL-2 and RAL-3 of RAL with Compounds 1, 2 and 3. Mixtures of 25.6 mg (0.09 mmol) RAL and 0.11 mmol of either Compound 1 or 2, or Compound 3 (2-[3-amino-6-chloroquinolin-2-yl]propan-2-ol, wherein the carbinol has no peri-interaction), in 1 mL dry benzene were stirred in the dark under argon at room temperature for 1 hr. The mixtures were evaporated to dryness and the residues evaporated twice from 2 mL benzene. The residues were dissolved in 1 mL benzene, allowed to stand 1 hr at room temperature and evaporated to dryness. The residues were evaporated from benzene (3×2 mL), redesolved in 0.5 mL dry benzene, and the solutions loaded on silica gel columns. The columns were first eluted with hexanes, and further eluted with 50:1 (v/v) hexanes-ethyl acetate. The fractions containing the adducts were evaporated to dryness to provide pure RAL-1, RAL-2 and RAL-3. The adducts were dissolved in 0.8 mL dry CDCl3, and the ratio of imine and oxaminal tautomers were determined from their ^1H NMR spectra. The values of KT and ΔGT were calculated according to equations (3) and (4).

SMILES | Kapp, apparent equilibrium constant of RAL depletion by drug [1] | kapp, apparent second order rate constant of RAL depletion by drug [1] [M⁻¹ s⁻¹] | ΔGapp, apparent free energy change of RAL depletion by drug [1] [kcal/mol] | KT, equilibrium constant of tautomerism from imine to oxaminal (ring closed) [2] | ΔGT, free energy change of tautomerism from imine to oxaminal (ring closed) [2]
CC(C)(O)c1c(N)cnc2ccc(Cl)c(F)c12 [Compound 1, 2-(3-amino-6-chloro-5-fluoroquinolin-4-yl)propan-2-ol] | >2 × 10^7 | 0.8556 | <-10 | >>1000 | <<−4 kcal/mol
CC(C)(O)c1c(N)cnc2ccc(Cl)cc12 [Compound 2, 2-(3-amino-6-chloroquinolin-4-yl)propan-2-ol] | >2 × 10^7 | 0.5278 | <-10 | >>1000 | <<−4 kcal/mol
CC(C)(O)c1nc2ccc(Cl)cc2cc1N [Compound 3, 2-[3-amino-6-chloroquinolin-2-yl]propan-2-ol, reference compound] | 1.55 × 10^5 | 0.9917 | -7.4 | 1.3 | -0.155 kcal/mol
